# Source: patent US20240368150A1 (Hoffmann-La Roche Inc., priority 2021, published 2024)
# pEC50: −log10 of the molar value. Like-named read-outs stand apart in the source and are kept apart here.
# How the values were obtained:
# primary human T-cells [1] = assay: Proliferation assay after 5 days (CellTiter-Glo, CD3 stimulation; PBS counter screen); assay type: cell-based; settings: Homo sapiens, T-cell, 120 h, CD3 stimulation; for Emax: 5 days, normalized to reference compound A1 as stimulator control = 100%, DMSO neutral control, read-out: Emax proliferation (% activation); for pEC50: primary human T-cells, CellTiter-Glo after 5 days, EC50 of fitted sigmoidal curve, read-out: Tcell Proliferation CD3 EC50
# In short: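 Cpds added to medium-only plates; 5 d culture. Readout CellTiter-Glo 2.0 (equal vol), RT 45 min equilibration, 15 min rocking RT, luminescence. ATP signal taken as cell number.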
# primary human T-cells [2] = test system: primary human T-cells
Structure (SMILES),pEC50 (primary human T-cells [2]),Emax (primary human T-cells [1]) [%],pEC50 (primary human T-cells [1])
"CC(C)(C)c1nnc(-c2cc3c(cc2F)S(=O)(=O)C[C@H](N)C(=O)N3Cc2ccc(OC(F)F)cc2)o1 [Example 223, (3R)-3-amino-7-(5-tert-butyl-1,3,4-oxadiazol-2-yl)-5-[[4-(difluoromethoxy)phenyl]methyl]-8-fluoro-1,1-dioxo-2,3-dihydro-1λ^6,5-benzothiazepin-4-one]",< 4.70,128,> 6.79
"CC(C)(C)c1nnc(-c2cc3c(cc2F)S(=O)(=O)C[C@H](N)C(=O)N3Cc2ccccn2)o1 [Example 224, (3R)-3-amino-7-(5-tert-butyl-1,3,4-oxadiazol-2-yl)-8-fluoro-1,1-dioxo-5-(2-pyridylmethyl)-2,3-dihydro-1λ^6,5-benzothiazepin-4-one]",< 4.70,31,< 4.70
"COc1ccc(CN2C(=O)[C@@H](N)CS(=O)(=O)c3cc(F)c(-c4nnc(C(C)(C)C)o4)cc32)cn1 [Example 225, (3R)-3-amino-7-(5-tert-butyl-1,3,4-oxadiazol-2-yl)-8-fluoro-5-[(6-methoxy-3-pyridyl)methyl]-1,1-dioxo-2,3-dihydro-1λ^6,5-benzothiazepin-4-one]",5.36,109,5.72
"CC(C)(C)c1nnc(-c2cc3c(cc2F)S(=O)(=O)C[C@H](N)C(=O)N3Cc2ccccc2Cl)o1 [Example 227, (3R)-3-amino-7-(5-tert-butyl-1,3,4-oxadiazol-2-yl)-5-[(2-chlorophenyl)methyl]-8-fluoro-1,1-dioxo-2,3-dihydro-1λ^6,5-benzothiazepin-4-one]",< 4.70,39,< 4.70

# More lines, main results first:
pEC50 (primary human T-cells [2]),Structure (SMILES),Emax (primary human T-cells [1]) [%],pEC50 (primary human T-cells [1])
6.42,"CC(C)(C)c1nnc(-c2cc3c(cc2F)S(=O)(=O)C[C@H](N)C(=O)N3Cc2ccc(OC3CCOC3)cc2)o1 (stereo partly drawn) [Example 221, (3R)-3-amino-7-(5-tert-butyl-1,3,4-oxadiazol-2-yl)-8-fluoro-1,1-dioxo-5-[(4-tetrahydrofuran-3-yloxyphenyl)methyl]-2,3-dihydro-1λ^6,5-benzothiazepin-4-one]",107,6.59
6.27,"CC(C)(C)c1nnc(-c2cc3c(cc2F)S(=O)(=O)C[C@H](N)C(=O)N3Cc2ccc(OCC(F)F)cc2)o1 [Example 222, (3R)-3-amino-7-(5-tert-butyl-1,3,4-oxadiazol-2-yl)-5-[[4-(2,2-difluoroethoxy)phenyl]methyl]-8-fluoro-1,1-dioxo-2,3-dihydro-1λ^6,5-benzothiazepin-4-one]",119,6.63
< 4.70,"CC(C)(C)c1nnc(-c2cc3c(cc2F)S(=O)(=O)C[C@H](N)C(=O)N3Cc2ccc(CN)cc2)o1 [Example 226, (3R)-3-amino-5-[[4-(aminomethyl)phenyl]methyl]-7-(5-tert-butyl-1,3,4-oxadiazol-2-yl)-8-fluoro-1,1-dioxo-2,3-dihydro-1λ^6,5-benzothiazepin-4-one]",25,< 4.70
5.28,"COc1ccc(CN2C(=O)[C@@H](N)CS(=O)(=O)c3cc(F)c(-c4nnc(C(C)(C)C)o4)cc32)nc1 [Example 228, (3R)-3-amino-7-(5-tert-butyl-1,3,4-oxadiazol-2-yl)-8-fluoro-5-[(5-methoxy-2-pyridyl)methyl]-1,1-dioxo-2,3-dihydro-1λ^6,5-benzothiazepin-4-one]",112,5.76
5.61,"CC(C)(C)c1nnc(-c2cc3c(cc2F)S(=O)(=O)C[C@H](N)C(=O)N3Cc2ccc(S(C)(=O)=O)cc2)o1 [Example 229, (3R)-3-amino-7-(5-tert-butyl-1,3,4-oxadiazol-2-yl)-8-fluoro-5-[(4-methylsulfonylphenyl)methyl]-1,1-dioxo-2,3-dihydro-1λ^6,5-benzothiazepin-4-one]",116,5.78
6.98,COc1ccc(CN2C(=O)[C@@H](N)CS(=O)(=O)c3cc(F)c(-c4nnc(C(C)(C)C)o4)cc32)cc1 [Example 230],119,7.05
